Measured values: the supplement of paper PMC10307832

Key:
Assay in all cases: relative viability (nuclei count vs DMSO), 5 days (fraction); higher = more cells survive
[1] = compound: C1=CC2=NC=CN=C2C=C1/C=C/3\C(=O)NC(=O)S3 + Nc1ncn([C@H]2C[C@H](O)[C@@H](CO)O2)c(=O)n1 [Decitabine] (partner 2 µM)
Outline: (§1)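 Five library-drug doses in √10 steps were combined with a fixed anchor-drug dose, or a single drug was given alone, by pin tool to lung cancer cell lines in 1536-well plates the day after seeding. Nuclei were stained and counted after 5 days. Relative viability is the nuclei count in treated wells over that in vehicle wells, taken as the median of duplicate plates.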

[2] = compound: C1=CC2=NC=CN=C2C=C1/C=C/3\C(=O)NC(=O)S3 + N=C(N)NC(=N)NCCc1ccccc1 [Phenformin] (partner 250 µM)
Outline: as §1

BGJ398 + Navitoclax = compound: CCN1CCN(c2ccc(Nc3cc(N(C)C(=O)Nc4c(Cl)c(OC)cc(OC)c4Cl)ncn3)cc2)CC1 [BGJ398] + CC1(C)CCC(c2ccc(Cl)cc2)=C(CN2CCN(c3ccc(C(=O)NS(=O)(=O)c4ccc(N[C@H](CCN5CCOCC5)CSc5ccccc5)c(S(=O)(=O)C(F)(F)F)c4)cc3)CC2)C1 [Navitoclax] (partner 0.5 µM)
Outline: as §1

[3] = compound: C1=CC2=NC=CN=C2C=C1/C=C/3\C(=O)NC(=O)S3 + CC(=O)Nc1cccc(-n2c(=O)n(C3CC3)c(=O)c3c(Nc4ccc(I)cc4F)n(C)c(=O)c(C)c32)c1 [Trametinib] (partner 0.02 µM)
Outline: as §1

For ABC-1, the relative viability ([1]; first compound 0.02 µM) was 1.04, the relative viability ([1]; first compound 0.06325 µM) was 1.31 and the relative viability ([1]; first compound 0.2 µM) was 1.4. The relative viability ([1]; first compound 0.6325 µM) was 1.1, the relative viability ([1]; first compound 2 µM) was 0.806 and the relative viability ([2]; first compound 0.02 µM) was 0.265. The relative viability ([2]; first compound 0.06325 µM) was 0.316, the relative viability ([2]; first compound 0.2 µM) was 0.215 and the relative viability ([2]; first compound 0.6325 µM) was 0.231. For the same cell line, the relative viability ([2]; first compound 2 µM) was 0.259.
Cell Line NCI-H1299 has a relative viability (BGJ398 + Navitoclax; first compound 0.01 µM) of 1.06, a relative viability (BGJ398 + Navitoclax; first compound 0.03162 µM) of 1.06 and a relative viability (BGJ398 + Navitoclax; first compound 0.1 µM) of 1.03. For the same cell line, the relative viability (BGJ398 + Navitoclax; first compound 0.3162 µM) was 1.03 and the relative viability (BGJ398 + Navitoclax; first compound 1 µM) was 1.06.
EBC-1 showed a relative viability (BGJ398 + Navitoclax; first compound 0.01 µM) of 0.467, a relative viability (BGJ398 + Navitoclax; first compound 0.03162 µM) of 0.526 and a relative viability (BGJ398 + Navitoclax; first compound 0.1 µM) of 0.444. It also gave a relative viability (BGJ398 + Navitoclax; first compound 0.3162 µM) of 0.447 and a relative viability (BGJ398 + Navitoclax; first compound 1 µM) of 0.396.
Work on NCI-H2342 yielded a relative viability ([1]; first compound 0.02 µM) of 0.726, a relative viability ([1]; first compound 0.06325 µM) of 0.664 and a relative viability ([1]; first compound 0.2 µM) of 0.805. The relative viability ([1]; first compound 0.6325 µM) was 0.69, the relative viability ([1]; first compound 2 µM) was 0.716 and the relative viability ([2]; first compound 0.02 µM) was 0.486. The relative viability ([2]; first compound 0.06325 µM) was 0.577, the relative viability ([2]; first compound 0.2 µM) was 0.739 and the relative viability ([2]; first compound 0.6325 µM) was 0.565. For the same cell line, the relative viability ([2]; first compound 2 µM) was 0.526, the relative viability ([3]; first compound 0.02 µM) was 0.698 and the relative viability ([3]; first compound 0.06325 µM) was 0.865. For the same cell line, the relative viability ([3]; first compound 0.2 µM) was 0.821, the relative viability ([3]; first compound 0.6325 µM) was 0.801 and the relative viability ([3]; first compound 2 µM) was 0.792.
NCI-H650 was tested, and the relative viability ([1]; first compound 0.02 µM) was 0.32, the relative viability ([1]; first compound 0.06325 µM) was 0.287 and the relative viability ([1]; first compound 0.2 µM) was 0.356. For the same cell line, the relative viability ([1]; first compound 0.6325 µM) was 0.319, the relative viability ([1]; first compound 2 µM) was 0.342 and the relative viability ([2]; first compound 0.02 µM) was 0.453. The relative viability ([2]; first compound 0.06325 µM) was 0.487, the relative viability ([2]; first compound 0.2 µM) was 0.527 and the relative viability ([2]; first compound 0.6325 µM) was 0.448. The relative viability ([2]; first compound 2 µM) was 0.348, the relative viability ([3]; first compound 0.02 µM) was 0.971 and the relative viability ([3]; first compound 0.06325 µM) was 0.927. For the same cell line, the relative viability ([3]; first compound 0.2 µM) was 1.3, the relative viability ([3]; first compound 0.6325 µM) was 0.994 and the relative viability ([3]; first compound 2 µM) was 0.69.
A549 was tested, and the relative viability ([1]; first compound 0.02 µM) was 0.292, the relative viability ([1]; first compound 0.06325 µM) was 0.245 and the relative viability ([1]; first compound 0.2 µM) was 0.297. For the same cell line, the relative viability ([1]; first compound 0.6325 µM) was 0.273, the relative viability ([1]; first compound 2 µM) was 0.293 and the relative viability ([2]; first compound 0.02 µM) was 0.175. For the same cell line, the relative viability ([2]; first compound 0.06325 µM) was 0.137, the relative viability ([2]; first compound 0.2 µM) was 0.156 and the relative viability ([2]; first compound 0.6325 µM) was 0.2. For the same cell line, the relative viability ([2]; first compound 2 µM) was 0.152, the relative viability (BGJ398 + Navitoclax; first compound 0.01 µM) was 1.14 and the relative viability (BGJ398 + Navitoclax; first compound 0.03162 µM) was 1.18. The relative viability (BGJ398 + Navitoclax; first compound 0.1 µM) was 1.23, the relative viability (BGJ398 + Navitoclax; first compound 0.3162 µM) was 1.21 and the relative viability (BGJ398 + Navitoclax; first compound 1 µM) was 1.13.
In the case of NCI-H358, the relative viability ([1]; first compound 0.02 µM) is reported as 0.227, the relative viability ([1]; first compound 0.06325 µM) is reported as 0.22 and the relative viability ([1]; first compound 0.2 µM) is reported as 0.221. The relative viability ([1]; first compound 0.6325 µM) was 0.268, the relative viability ([1]; first compound 2 µM) was 0.182 and the relative viability ([2]; first compound 0.02 µM) was 0.41. It also gave a relative viability ([2]; first compound 0.06325 µM) of 0.382, a relative viability ([2]; first compound 0.2 µM) of 0.356 and a relative viability ([2]; first compound 0.6325 µM) of 0.283. The relative viability ([2]; first compound 2 µM) was 0.149, the relative viability ([3]; first compound 0.02 µM) was 0.145 and the relative viability ([3]; first compound 0.06325 µM) was 0.122. It also gave a relative viability ([3]; first compound 0.2 µM) of 0.139, a relative viability ([3]; first compound 0.6325 µM) of 0.126 and a relative viability ([3]; first compound 2 µM) of 0.11.
With NCI-H1563 the relative viability ([2]; first compound 0.02 µM) was 0.667, the relative viability ([2]; first compound 0.06325 µM) was 0.674 and the relative viability ([2]; first compound 0.2 µM) was 0.657. The relative viability ([2]; first compound 0.6325 µM) was 0.648 and the relative viability ([2]; first compound 2 µM) was 0.663.
In the case of SW 900, the relative viability ([1]; first compound 0.02 µM) is reported as 0.418, the relative viability ([1]; first compound 0.06325 µM) is reported as 0.356 and the relative viability ([1]; first compound 0.2 µM) is reported as 0.515. The relative viability ([1]; first compound 2 µM) was 0.433, the relative viability ([2]; first compound 0.02 µM) was 0.675 and the relative viability ([2]; first compound 0.06325 µM) was 0.601. It also gave a relative viability ([2]; first compound 0.2 µM) of 0.702, a relative viability ([2]; first compound 0.6325 µM) of 0.4 and a relative viability ([2]; first compound 2 µM) of 0.551. The relative viability ([3]; first compound 0.02 µM) was 0.554, the relative viability ([3]; first compound 0.06325 µM) was 0.853 and the relative viability ([3]; first compound 0.2 µM) was 0.742. For the same cell line, the relative viability ([3]; first compound 2 µM) was 0.776.
In the case of IA-LM, the relative viability (BGJ398 + Navitoclax; first compound 0.01 µM) is reported as 0.614, the relative viability (BGJ398 + Navitoclax; first compound 0.03162 µM) is reported as 0.798 and the relative viability (BGJ398 + Navitoclax; first compound 0.1 µM) is reported as 0.764. The relative viability (BGJ398 + Navitoclax; first compound 0.3162 µM) was 0.724 and the relative viability (BGJ398 + Navitoclax; first compound 1 µM) was 0.917.
NCI-H1703 was tested, and the relative viability (BGJ398 + Navitoclax; first compound 0.01 µM) was 0.823, the relative viability (BGJ398 + Navitoclax; first compound 0.03162 µM) was 1.39 and the relative viability (BGJ398 + Navitoclax; first compound 0.1 µM) was 0.989. The relative viability (BGJ398 + Navitoclax; first compound 0.3162 µM) was 1.14 and the relative viability (BGJ398 + Navitoclax; first compound 1 µM) was 0.964.
With LCLC-103H the relative viability ([1]; first compound 0.02 µM) was 0.71, the relative viability ([1]; first compound 0.06325 µM) was 0.798 and the relative viability ([1]; first compound 0.2 µM) was 0.707. For the same cell line, the relative viability ([1]; first compound 0.6325 µM) was 0.747, the relative viability ([1]; first compound 2 µM) was 0.709 and the relative viability ([2]; first compound 0.02 µM) was 0.325. The relative viability ([2]; first compound 0.06325 µM) was 0.322, the relative viability ([2]; first compound 0.2 µM) was 0.351 and the relative viability ([2]; first compound 0.6325 µM) was 0.354. The relative viability ([2]; first compound 2 µM) was 0.25, the relative viability ([3]; first compound 0.02 µM) was 0.676 and the relative viability ([3]; first compound 0.06325 µM) was 0.701. It also gave a relative viability ([3]; first compound 0.2 µM) of 0.634, a relative viability ([3]; first compound 0.6325 µM) of 0.665 and a relative viability ([3]; first compound 2 µM) of 0.666.
Cell Line NCI-H1648 has a relative viability ([1]; first compound 0.02 µM) of 0.33, a relative viability ([1]; first compound 0.06325 µM) of 0.549 and a relative viability ([1]; first compound 0.2 µM) of 0.57. The relative viability ([1]; first compound 2 µM) was 0.539, the relative viability ([3]; first compound 0.02 µM) was 0.434 and the relative viability ([3]; first compound 0.06325 µM) was 0.401. The relative viability ([3]; first compound 0.2 µM) was 0.496 and the relative viability ([3]; first compound 2 µM) was 0.487.
